Patent US20080200454A1, “CARBON-LINKED TETRAHYDRO-PYRAZOLO-PYRIDINE MODULATORS OF CATHEPSIN S” (priority 2007, published 2008)
Like-named read-outs stand apart in the source and are kept apart here.

Molecular target: Recombinant human cathepsin S (CatS) (Homo sapiens, UniProt P25774)
Experiment: Recombinant human cathepsin S (CatS) inhibition assay, fluorogenic substrate Z-Valine-Valine-Arginine-AMC;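 note: Baculovirus-expressed CatS in pH 5.0 sodium acetate buffer with DTT and NaCl, fluorescence read each minute over 20 min, inhibition derived from rate slope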
Description: Recombinant human cathepsin S (CatS) was expressed in the baculovirus system and purified in one step with a thiopropyl-sepharose column. 10-L yielded ˜700 mg of CatS and N-terminal sequencing confirmed identity. The assay is run in 150 mM sodium acetate pH 5.0 containing 1.5 mM DTT and 150 mM NaCl. […] Using 2 ng/well of CatS, the production of product is linear and yields-7-fold signal after 20 min with only 20% loss of substrate. Measurements are taken every min for 20 min. The rate is calculated from the slope of the increase in fluorescence and the percent inhibition is calculated from this.

Sequence of Recombinant human cathepsin S (CatS) (P25774 115-331): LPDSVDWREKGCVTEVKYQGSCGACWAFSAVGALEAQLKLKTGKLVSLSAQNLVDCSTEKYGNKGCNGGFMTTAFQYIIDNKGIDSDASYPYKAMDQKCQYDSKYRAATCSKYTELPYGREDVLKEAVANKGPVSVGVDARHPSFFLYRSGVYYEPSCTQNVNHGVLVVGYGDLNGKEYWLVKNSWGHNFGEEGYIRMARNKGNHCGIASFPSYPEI

IC50 [nM]	Compound	IC50 (CatS IC50) [nM]
320	COC(=O)c1ccccc1S(=O)(=O)NCCCc1cc(-c2nn(CCCN3CCC(N4CCCC4=O)CC3)c3c2CN(S(C)(=O)=O)CC3)ccc1Cl [Example 309, Methyl 2-{[(3-{2-chloro-5-[5-(methylsulfonyl)-1-{3-[4-(2-oxopyrrolidin-1-yl)piperidin-1-yl]propyl}-4,5,6,7-tetrahydro-1H-pyrazolo[4,3-c]pyridin-3-yl]phenyl}propyl)amino]sulfonyl}benzoate]	–
2120	CS(=O)(=O)N1CCc2c(c(-c3ccc(Cl)c(C#CCO)c3)nn2CCCN2CCC(N3CCCC3=O)CC2)C1 [Example 310, 1-[1-(3-{3-[4-Chloro-3-(3-hydroxyprop-1-yn-1-yl)phenyl]-5-(methylsulfonyl)-4,5,6,7-tetrahydro-1H-pyrazolo[4,3-c]pyridin-1-yl}propyl)piperidin-4-yl]pyrrolidin-2-one]	–
1350	CS(=O)(=O)N1CCc2c(c(-c3ccc(Cl)c(CCCCO)c3)nn2CCCN2CCC(N3CCCC3=O)CC2)C1 [Example 311, 1-[1-(3-{3-[4-Chloro-3-(4-hydroxybutyl)phenyl]-5-(methylsulfonyl)-4,5,6,7-tetrahydro-1H-pyrazolo[4,3-c]pyridin-1-yl}propyl)piperidin-4-yl]pyrrolidin-2-one]	–
5620	CN(C)CCCCc1cc(-c2nn(CCCN3CCC(N4CCCC4=O)CC3)c3c2CN(S(C)(=O)=O)CC3)ccc1Cl [Example 312, 1-(1-{3-[3-{4-Chloro-3-[4-(dimethylamino)butyl]phenyl}-5-(methylsulfonyl)-4,5,6,7-tetrahydro-1H-pyrazolo[4,3-c]pyridin-1-yl]propyl}piperidin-4-yl)pyrrolidin-2-one]	–
1960	CS(=O)(=O)N1CCc2c(c(-c3ccc(Cl)c(CCCO)c3)nn2CCCN2CCC(N3CCCC3=O)CC2)C1 [Example 313, 1-[1-(3-{3-[4-Chloro-3-(3-hydroxypropyl)phenyl]-5-(methylsulfonyl)-4,5,6,7-tetrahydro-1H-pyrazolo[4,3-c]pyridin-1-yl}propyl)piperidin-4-yl]pyrrolidin-2-one]	–
3660	CN(C)CCCc1cc(-c2nn(CCCN3CCC(N4CCCC4=O)CC3)c3c2CN(S(C)(=O)=O)CC3)ccc1Cl [Example 314, 1-(1-{3-[3-{4-Chloro-3-[3-(dimethylamino)propyl]phenyl}-5-(methylsulfonyl)-4,5,6,7-tetrahydro-1H-pyrazolo[4,3-c]pyridin-1-yl]propyl}piperidin-4-yl)pyrrolidin-2-one]	–
1360	CNCc1ccc(C#Cc2cc(-c3nn(CCCN4CCOCC4)c4c3CN(S(C)(=O)=O)CC4)ccc2Cl)cc1 [Example 315, 1-[4-({2-Chloro-5-[5-(methylsulfonyl)-1-(3-morpholin-4-ylpropyl)-4,5,6,7-tetrahydro-1H-pyrazolo[4,3-c]pyridin-3-yl]phenyl}ethynyl)phenyl]-N-methylmethanamine]	–
580	CS(=O)(=O)N1CCc2c(c(-c3ccc(Cl)c(C#Cc4ccc(CNCCc5ccccc5)cc4)c3)nn2CCCN2CCOCC2)C1 [Example 316, N-{[4-({2-Chloro-5-[5-(methylsulfonyl)-1-(3-morpholin-4-ylpropyl)-4,5,6,7-tetrahydro-1H-pyrazolo[4,3-c]pyridin-3-yl]phenyl}ethynyl)phenyl]methyl}-2-phenylethanamine]	–

Further lines, the compound ahead of its results:

Compound	IC50 [nM]	IC50 (CatS IC50) [nM]
CS(=O)(=O)N1CCc2c(c(-c3ccc(C(F)(F)F)c(C#CCNS(=O)(=O)c4ccccc4)c3)nn2CC(O)CN2CCOCC2)C1 (stereo not drawn) [Example 305, N-(3-{5-[1-(2-Hydroxy-3-morpholin-4-ylpropyl)-5-(methylsulfonyl)-4,5,6,7-tetrahydro-1H-pyrazolo[4,3-c]pyridin-3-yl]-2-(trifluoromethyl)phenyl}prop-2-yn-1-yl)benzenesulfonamide]	3950	–
CS(=O)(=O)N1CCc2c(c(-c3ccc(C(F)(F)F)c(CCCNS(=O)(=O)c4ccccc4)c3)nn2CC(O)CN2CCOCC2)C1 (stereo not drawn) [Example 306, N-(3-{5-[1-(2-Hydroxy-3-morpholin-4-ylpropyl)-5-(methylsulfonyl)-4,5,6,7-tetrahydro-1H-pyrazolo[4,3-c]pyridin-3-yl]-2-(trifluoromethyl)phenyl}propyl)benzenesulfonamide]	3220	–
CS(=O)(=O)N1CCc2c(c(-c3ccc(Cl)c(C#CCN)c3)nn2CCCN2CCC(N3CCCC3=O)CC2)C1 [Example 307, 1-[1-(3-{3-[3-(3-Aminoprop-1-yn-1-yl)-4-chlorophenyl]-5-(methylsulfonyl)-4,5,6,7-tetrahydro-1H-pyrazolo[4,3-c]pyridin-1-yl}propyl)piperidin-4-yl]pyrrolidin-2-one]	4650	–
CS(=O)(=O)N1CCc2c(c(-c3ccc(Cl)c(CCCN)c3)nn2CCCN2CCC(N3CCCC3=O)CC2)C1 [Example 308, 1-[1-(3-{3-[3-(3-Aminopropyl)-4-chlorophenyl]-5-(methylsulfonyl)-4,5,6,7-tetrahydro-1H-pyrazolo[4,3-c]pyridin-1-yl}propyl)piperidin-4-yl]pyrrolidin-2-one]	5650	–
CCN(CC)Cc1ccc(C#Cc2cc(-c3nn(CCCN4CCOCC4)c4c3CN(S(C)(=O)=O)CC4)ccc2Cl)cc1 [Example 317, N-{[4-({2-Chloro-5-[5-(methylsulfonyl)-1-(3-morpholin-4-ylpropyl)-4,5,6,7-tetrahydro-1H-pyrazolo[4,3-c]pyridin-3-yl]phenyl}ethynyl)phenyl]methyl}-N-ethylethanamine]	–	2710
CC(C)CNCc1ccc(C#Cc2cc(-c3nn(CCCN4CCOCC4)c4c3CN(S(C)(=O)=O)CC4)ccc2Cl)cc1 [Example 318, N-{[4-({2-Chloro-5-[5-(methylsulfonyl)-1-(3-morpholin-4-ylpropyl)-4,5,6,7-tetrahydro-1H-pyrazolo[4,3-c]pyridin-3-yl]phenyl}ethynyl)phenyl]methyl}-2-methylpropan-1-amine]	–	1150
CS(=O)(=O)N1CCc2c(c(-c3ccc(Cl)c(C#Cc4ccc(-c5nc6ccccc6[nH]5)cc4)c3)nn2CCCN2CCOCC2)C1 [Example 320, 3-(3-{[4-(1H-Benzimidazol-2-yl)phenyl]ethynyl}-4-chlorophenyl)-5-(methylsulfonyl)-1-(3-morpholin-4-ylpropyl)-4,5,6,7-tetrahydro-1H-pyrazolo[4,3-c]pyridine]	–	90
CS(=O)(=O)N1CCc2c(c(-c3ccc(Cl)c(C#Cc4ccc(NCc5ccccc5)cc4)c3)nn2CCCN2CCOCC2)C1 [Example 321, 4-({2-Chloro-5-[5-(methylsulfonyl)-1-(3-morpholin-4-ylpropyl)-4,5,6,7-tetrahydro-1H-pyrazolo[4,3-c]pyridin-3-yl]phenyl}ethynyl)-N-(phenylmethyl)aniline]	–	4650
CS(=O)(=O)N1CCc2c(c(-c3ccc(Cl)c(C#Cc4ccc(NCC#N)cc4)c3)nn2CCCN2CCOCC2)C1 [Example 322, {[4-({2-Chloro-5-[5-(methylsulfonyl)-1-(3-morpholin-4-ylpropyl)-4,5,6,7-tetrahydro-1H-pyrazolo[4,3-c]pyridin-3-yl]phenyl}ethynyl)phenyl]amino}acetonitrile]	–	730
CS(=O)(=O)N1CCc2c(c(-c3ccc(Cl)c(C#Cc4ccc(CNC5CC5)cc4)c3)nn2CCCN2CCOCC2)C1 [Example 323, N-{[4-({2-Chloro-5-[5-(methylsulfonyl)-1-(3-morpholin-4-ylpropyl)-4,5,6,7-tetrahydro-1H-pyrazolo[4,3-c]pyridin-3-yl]phenyl}ethynyl)phenyl]methyl}cyclopropanamine]	–	750
CS(=O)(=O)N1CCc2c(c(-c3ccc(Cl)c(C#Cc4ccc(CNC5CCC5)cc4)c3)nn2CCCN2CCOCC2)C1 [Example 324, N-{[4-({2-Chloro-5-[5-(methylsulfonyl)-1-(3-morpholin-4-ylpropyl)-4,5,6,7-tetrahydro-1H-pyrazolo[4,3-c]pyridin-3-yl]phenyl}ethynyl)phenyl]methyl}cyclobutanamine]	–	1340
CS(=O)(=O)N1CCc2c(c(-c3ccc(Cl)c(C#Cc4ccc(CNC5CCCC5)cc4)c3)nn2CCCN2CCOCC2)C1 [Example 325, N-{[4-({2-Chloro-5-[5-(methylsulfonyl)-1-(3-morpholin-4-ylpropyl)-4,5,6,7-tetrahydro-1H-pyrazolo[4,3-c]pyridin-3-yl]phenyl}ethynyl)phenyl]methyl}cyclopentanamine]	–	1450
CS(=O)(=O)N1CCc2c(c(-c3ccc(Cl)c(C#Cc4ccc(CNC5CCCCC5)cc4)c3)nn2CCCN2CCOCC2)C1 [Example 326, N-{[4-({2-Chloro-5-[5-(methylsulfonyl)-1-(3-morpholin-4-ylpropyl)-4,5,6,7-tetrahydro-1H-pyrazolo[4,3-c]pyridin-3-yl]phenyl}ethynyl)phenyl]methyl}cyclohexanamine]	–	1370
CS(=O)(=O)N1CCc2c(c(-c3ccc(Cl)c(C#Cc4ccc(NCCc5ccccc5)cc4)c3)nn2CCCN2CCOCC2)C1 [Example 327, 4-({2-Chloro-5-[5-(methylsulfonyl)-1-(3-morpholin-4-ylpropyl)-4,5,6,7-tetrahydro-1H-pyrazolo[4,3-c]pyridin-3-yl]phenyl}ethynyl)-N-(2-phenylethyl)aniline]	–	760
CS(=O)(=O)N1CCc2c(c(-c3ccc(Cl)c(C#Cc4ccc(CNCc5ccc(Cl)cc5)cc4)c3)nn2CCCN2CCC(N3CCCC3=O)CC2)C1 [Example 328, 1-(1-{3-[3-(4-Chloro-3-{[4-({[(4-chlorophenyl)methyl]amino}methyl)phenyl]ethynyl}phenyl)-5-(methylsulfonyl)-4,5,6,7-tetrahydro-1H-pyrazolo[4,3-c]pyridin-1-yl]propyl}piperidin-4-yl)pyrrolidin-2-one]	–	20
CC(C)(C)OC(=O)NC1CCN(CCCn2nc(-c3ccc(Cl)c(C#Cc4ccc(CNCc5ccc(Cl)cc5)cc4)c3)c3c2CCN(S(C)(=O)=O)C3)CC1 [Example 329, 1,1-Dimethylethyl (1-{3-[3-(4-chloro-3-{[4-({[(4-chlorophenyl)methyl]amino}methyl)phenyl]ethynyl}phenyl)-5-(methylsulfonyl)-4,5,6,7-tetrahydro-1H-pyrazolo[4,3-c]pyridin-1-yl]propyl}piperidin-4-yl)carbamate]	–	30
